From US20070026505A1, “Amino acid and metabolite biosynthesis” (priority 2005, published 2007)

Key:
C. glutamicum MetA = target: T1, C. glutamicum MetA (Corynebacterium glutamicum, UniProt O68640); test: MetA (in vitro O-acetyltransferase) activity in crude protein extracts, C. glutamicum MetA; assay type: biochemical
T1 construct: contain both endogenous and episomal C. glutamicum MetA and MetY genes; expressed in transfected cells; host or cells: C. glutamicum MA-442 (plasmid MB-4135, metA-metY) and MA-449 (MB-4138, metY-metA), both MA-428 / ATCC 13032 derivatives; crude protein extract
T1 sequence (O68640 whole entry): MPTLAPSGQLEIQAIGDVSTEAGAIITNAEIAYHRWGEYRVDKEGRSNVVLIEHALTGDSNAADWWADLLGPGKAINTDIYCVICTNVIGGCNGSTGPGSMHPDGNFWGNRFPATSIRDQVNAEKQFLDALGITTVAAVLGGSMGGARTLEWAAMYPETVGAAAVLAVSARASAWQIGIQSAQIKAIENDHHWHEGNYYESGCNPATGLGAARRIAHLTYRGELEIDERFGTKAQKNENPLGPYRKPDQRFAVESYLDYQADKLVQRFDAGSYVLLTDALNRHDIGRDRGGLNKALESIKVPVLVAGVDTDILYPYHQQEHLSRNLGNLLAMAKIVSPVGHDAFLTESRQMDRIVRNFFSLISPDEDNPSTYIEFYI
Procedure: MetA activity in C. glutamicum expressing endogenous and episomal metA genes was determined. MetA activity was assayed in crude protein extracts using a protocol described by Kredich and Tomkins (J. Biol. Chem.241(21): 4955-4965, 1966). […] Briefly, 1 μg of protein extract was added to a microtiter plate. Reaction mix (250 μl; 100 mM tris-HCl pH 7.5, 2 mM 5,5′-Dithiobis(2-nitrobenzoic acid) (DTN), 2 mM sodium EDTA, 2 mM acetyl CoA, 2 mM homoserine) was added to each well of the microtiter plate. In the course of the reactions, MetA activity liberates CoA from acetyl-CoA. A disulfide interchange occurs between the CoA and DTN to produce thionitrobenzoic acid. The production of thionitrobenzoic acid is followed spectrophotometrically. Absorbance at 412 nm was measured every 5 minutes over a period of 30 minutes. A well without protein extract was included as a control. […] Inhibitors were added directly to the reaction mix before it was added to the protein extract.
Experiments were performed in the presence and absence of IPTG that induces expression of the plasmid borne MetA and MetY genes.

[1] = test system: O-Acetylhomoserine sulfhydrylase (MetY); details: grown in the presence of 0.5 mM methionine; cited from earlier work

SMILES	MetA activity of MA-442 extracts in presence of S-AM (C. glutamicum MetA; 0.2 mM S-AM)	MetA activity of MA-442 extracts in presence of methionine (C. glutamicum MetA; 5 mM methionine)	reduction in MetY enzyme activity [1] [%]
C[S+](CC[C@H](N)C(=O)[O-])C[C@H]1O[C@@H](n2cnc3c(N)ncnc32)[C@H](O)[C@@H]1O (stereo partly drawn) [S-AM, S-adenosyl methionine]	reduced	–	–
CSCC[C@H](N)C(=O)O [methionine]	–	reduced	99
